# According to patent US9265922B2, “System and method for improving outcome of cerebral ischemia” (ASTUCE, INC., priority 2012, dated 2016):
# Entries after “also recorded” stand apart in the source; their conditions may differ.
# What was measured:
# [1] = test system: patients with cerebral ischemia; assay: CT perfusion scanning in intubated patients with cerebral ischemia before and after intranasal nitric oxide; type: in vivo, human
# [2] = test system: carotid artery occlusion model; assay: Carotid artery occlusion model, Speckle laser Doppler, intranasal nitric oxide; type: in vivo, rodents
# Procedure: (§1) In intubated rodents, the inventors have shown that cerebral blood flow increases by 100% within 60 minutes of intranasal nitric oxide delivery.
# Increase in cerebral blood flow is attributable to focal intranasal or intra-oral effect of nitric oxide rather than to systemic absorption of the gas. […] The effect on cerebral blood flow during intranasal delivery of nitric oxide with concomitant air inhalation into the lungs is therefore a focal effect on intranasal and intracranial vasculature attributable specifically to nitric oxide. […] In a non-intubated patient, nitric oxide inhalation can be prevented by occluding the nasal cavity anterior or posterior to the site of gas delivery. This is achieved by means of an anterior occlusion device such a rigid member, an expandable member, a compressible member, a sponge, a porous member, a plug, a balloon, foam and/or combinations of the foregoing, which prevent inhalation through the nostrils while maintaining a high concentration of nitric oxide in the nasal cavity. A non-intubated patient may be allowed to inhale air into the lungs during nitric oxide delivery into the nasal cavity by an optional central lumen with the distal orifice beyond the sites of nasal gas delivery and occlusion device.
# intubated rodents = assay: Cerebral blood flow by cortical laser Doppler during intranasal nitric oxide in intubated rodents; type: in vivo
# Procedure: as §1
# [3] = test system: humans (normal volunteers); assay: Tolerability of intranasal nitric oxide in normal volunteers; type: in vivo, human; conditions: high concentration, delivered intra-nasally and without inhalation
# Description: While nitric oxide may be given intranasally and without inhalation into the lungs to intubated, comatose individuals the tolerability of intranasal nitric oxide in awake humans has not previously been investigated. The inventors have tested the effect of nitric oxide in humans (normal volunteers) during intranasal delivery. […] Therefore it can easily be tolerated by awake, non-intubated patients.
compound,measurement,setting,value
[N]=O [nitric oxide],"increase in perfusion on L (Cerebral Blood Flow, ACA Watershed)","[1]; Post Rx versus Pre Rx, left ischemic hemisphere",67% increase in
same,"Mean Transit Time, Changes in ACA Watershed","[1]; Post Rx, Pre Rx 4 sec delay",Normalization
same,"Cerebral Blood Flow, Changes in ACA Watershed","[1]; Post Rx, Pre Rx 37% lower on ischemic side","Normalization,"
same,cerebral perfusion by CT perfusion scanning,"[1]; intubated patients with cerebral ischemia, during treatment with intranasal nitric oxide (FIGS. 10, 11)",improvement in cerebral perfusion; also recorded: augmentation of cerebral perfusion and normalization of regional perfusion abnormalities
same,perfusion in the ischemic hemisphere,[2]; both during the carotid occlusion and following ligature release (FIG. 9),improved
same,"cerebral ischemia (FIG. 9, Speckle laser Doppler tracing)",[2]; intubated rodents given intranasal nitric oxide,reduction of cerebral ischemia
same,"cerebral blood flow (FIG. 8, cortical laser Doppler)",intubated rodents; during intranasal administration,doubling of cerebral blood flow
same,cerebral blood flow increase,intubated rodents; within 60 minutes of intranasal non-inhaled nitric oxide delivery,100%
same,tolerability of gas treatment,[3],tolerated
